# Test results from ChEMBL document CHEMBL1201862, “PubChem BioAssay data set” (2004).
# Active and inactive are the calls of the source.
# Columns and labels:
# Protein skinhead-1 = target: T1, Protein skinhead-1 (Caenorhabditis elegans, UniProt P34707); assay type: functional
# T1 sequence (P34707 whole entry): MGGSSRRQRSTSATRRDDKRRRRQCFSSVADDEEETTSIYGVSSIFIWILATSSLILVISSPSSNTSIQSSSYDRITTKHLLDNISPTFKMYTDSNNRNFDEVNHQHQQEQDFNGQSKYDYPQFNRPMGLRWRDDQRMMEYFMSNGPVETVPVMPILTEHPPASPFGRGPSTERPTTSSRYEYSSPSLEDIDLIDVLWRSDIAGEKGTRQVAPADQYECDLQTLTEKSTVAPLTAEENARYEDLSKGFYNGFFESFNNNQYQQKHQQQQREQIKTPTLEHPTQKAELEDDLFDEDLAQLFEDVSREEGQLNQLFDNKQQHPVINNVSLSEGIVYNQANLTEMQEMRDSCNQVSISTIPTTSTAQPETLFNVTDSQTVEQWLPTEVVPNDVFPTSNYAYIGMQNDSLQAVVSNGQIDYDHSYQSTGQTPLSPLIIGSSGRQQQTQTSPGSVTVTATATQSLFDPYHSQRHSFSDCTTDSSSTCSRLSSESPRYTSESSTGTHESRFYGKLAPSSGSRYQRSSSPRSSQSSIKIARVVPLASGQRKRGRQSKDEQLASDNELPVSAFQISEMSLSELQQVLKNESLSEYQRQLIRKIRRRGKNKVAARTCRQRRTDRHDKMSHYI
# [1] = viability of uninfected HEp-2 cells – cell-based, HTS, cytotoxicity control for RSV inhibitor project, dose response (AID 2410); assay type: functional; conditions: human respiratory syncytial virus
# [2] = target: T2, Replicative DNA helicase DnaB (Mycobacterium tuberculosis, UniProt P9WMR3); assay: DnaB intein splicing inhibitors, dose response, biochemical, cell-free fluorescence (AID 449749); assay type: functional
# T2 sequence (P9WMR3 whole entry): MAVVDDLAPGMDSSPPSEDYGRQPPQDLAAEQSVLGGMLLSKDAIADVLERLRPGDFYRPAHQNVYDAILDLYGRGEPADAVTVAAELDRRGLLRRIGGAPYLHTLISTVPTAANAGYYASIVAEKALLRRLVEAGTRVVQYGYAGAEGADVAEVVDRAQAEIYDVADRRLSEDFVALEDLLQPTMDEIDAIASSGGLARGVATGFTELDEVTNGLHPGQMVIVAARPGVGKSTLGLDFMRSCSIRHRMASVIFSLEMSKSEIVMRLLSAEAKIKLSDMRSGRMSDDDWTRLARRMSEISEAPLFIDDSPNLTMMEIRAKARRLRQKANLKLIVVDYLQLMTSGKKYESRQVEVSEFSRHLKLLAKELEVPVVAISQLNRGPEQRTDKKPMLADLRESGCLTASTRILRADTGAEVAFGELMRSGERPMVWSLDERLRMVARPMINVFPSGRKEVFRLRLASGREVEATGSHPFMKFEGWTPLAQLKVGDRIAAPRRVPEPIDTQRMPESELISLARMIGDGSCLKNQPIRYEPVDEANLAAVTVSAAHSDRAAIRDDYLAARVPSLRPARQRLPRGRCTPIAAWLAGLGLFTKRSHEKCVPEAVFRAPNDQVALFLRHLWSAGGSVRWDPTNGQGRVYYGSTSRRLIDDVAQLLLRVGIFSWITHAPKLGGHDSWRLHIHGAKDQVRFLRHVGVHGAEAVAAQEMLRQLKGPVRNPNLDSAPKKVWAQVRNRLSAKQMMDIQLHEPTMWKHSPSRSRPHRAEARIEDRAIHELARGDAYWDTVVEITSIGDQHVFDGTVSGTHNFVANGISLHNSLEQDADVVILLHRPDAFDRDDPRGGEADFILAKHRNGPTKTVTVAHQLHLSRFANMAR
# Protein RecA = target: T3, Protein RecA (Mycobacterium tuberculosis, UniProt P9WHJ3); assay: Fluorescence Cell-Free Homogeneous Dose Retest to Identify Inhibitors of RecA-Intein Splicing Activity. [Related pubchem assays (depositor defined):AID2097, AID2223, AID489010, AID492950]; assay type: functional
# T3 sequence (P9WHJ3 whole entry): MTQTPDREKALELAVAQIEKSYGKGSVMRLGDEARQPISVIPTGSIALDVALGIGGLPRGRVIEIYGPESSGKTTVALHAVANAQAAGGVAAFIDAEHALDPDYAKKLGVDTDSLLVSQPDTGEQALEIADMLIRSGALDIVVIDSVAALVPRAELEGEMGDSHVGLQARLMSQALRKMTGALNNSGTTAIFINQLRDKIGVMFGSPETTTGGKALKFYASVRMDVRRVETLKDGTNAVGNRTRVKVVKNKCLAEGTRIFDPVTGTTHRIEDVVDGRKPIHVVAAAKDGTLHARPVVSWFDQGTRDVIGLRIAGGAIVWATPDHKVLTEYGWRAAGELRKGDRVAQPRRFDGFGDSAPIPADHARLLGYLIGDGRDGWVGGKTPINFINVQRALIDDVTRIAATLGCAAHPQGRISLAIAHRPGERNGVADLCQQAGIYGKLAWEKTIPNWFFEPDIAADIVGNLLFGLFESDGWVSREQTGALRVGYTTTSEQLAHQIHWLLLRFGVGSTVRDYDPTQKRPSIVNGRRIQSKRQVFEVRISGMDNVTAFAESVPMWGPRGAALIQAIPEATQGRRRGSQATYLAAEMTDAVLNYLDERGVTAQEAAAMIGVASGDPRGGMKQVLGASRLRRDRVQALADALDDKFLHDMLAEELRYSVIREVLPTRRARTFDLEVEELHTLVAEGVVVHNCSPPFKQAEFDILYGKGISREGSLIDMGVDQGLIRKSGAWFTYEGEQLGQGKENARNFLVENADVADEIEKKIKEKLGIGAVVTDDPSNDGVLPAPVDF
# [3] = Luminescence Cell-Based Dose Retest to Confirm Inhibitors of Cancer Stem Cells. [Related pubchem assays (depositor defined):AID2717, AID2721]; assay type: functional; conditions: Homo sapiens
# Cytochrome P450 3A4 = Cytochrome P450 3A4 (Homo sapiens, UniProt P08684);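 further: CYP3A4 tested as one member of a cytochrome P450 panel screen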
# Sequence of Cytochrome P450 3A4 (P08684 whole entry): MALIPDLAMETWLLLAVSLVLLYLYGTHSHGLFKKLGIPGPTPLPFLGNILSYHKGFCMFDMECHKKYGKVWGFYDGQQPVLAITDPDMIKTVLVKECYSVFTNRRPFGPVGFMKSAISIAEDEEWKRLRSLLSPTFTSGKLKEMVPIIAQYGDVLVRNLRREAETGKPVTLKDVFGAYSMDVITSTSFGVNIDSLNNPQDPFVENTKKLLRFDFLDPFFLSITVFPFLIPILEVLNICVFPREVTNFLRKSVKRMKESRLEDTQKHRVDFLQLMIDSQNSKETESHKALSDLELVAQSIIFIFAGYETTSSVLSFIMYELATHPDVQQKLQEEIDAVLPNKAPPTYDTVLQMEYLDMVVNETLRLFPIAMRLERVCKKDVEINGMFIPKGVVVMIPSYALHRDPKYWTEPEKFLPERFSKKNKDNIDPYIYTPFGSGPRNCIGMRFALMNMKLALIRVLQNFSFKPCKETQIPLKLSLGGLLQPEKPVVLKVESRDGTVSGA
# [4] = target: T4, Rac GTPase-activating protein 1 (Homo sapiens, UniProt Q9H0H5); assay: blockers of MgcRacGAP-driven Rac1 GTP hydrolysis – biochemical, ADP Hunter fluorescence, primary and confirmatory, confirmation (AID 624330); assay type: functional
# T4 sequence (Q9H0H5 whole entry): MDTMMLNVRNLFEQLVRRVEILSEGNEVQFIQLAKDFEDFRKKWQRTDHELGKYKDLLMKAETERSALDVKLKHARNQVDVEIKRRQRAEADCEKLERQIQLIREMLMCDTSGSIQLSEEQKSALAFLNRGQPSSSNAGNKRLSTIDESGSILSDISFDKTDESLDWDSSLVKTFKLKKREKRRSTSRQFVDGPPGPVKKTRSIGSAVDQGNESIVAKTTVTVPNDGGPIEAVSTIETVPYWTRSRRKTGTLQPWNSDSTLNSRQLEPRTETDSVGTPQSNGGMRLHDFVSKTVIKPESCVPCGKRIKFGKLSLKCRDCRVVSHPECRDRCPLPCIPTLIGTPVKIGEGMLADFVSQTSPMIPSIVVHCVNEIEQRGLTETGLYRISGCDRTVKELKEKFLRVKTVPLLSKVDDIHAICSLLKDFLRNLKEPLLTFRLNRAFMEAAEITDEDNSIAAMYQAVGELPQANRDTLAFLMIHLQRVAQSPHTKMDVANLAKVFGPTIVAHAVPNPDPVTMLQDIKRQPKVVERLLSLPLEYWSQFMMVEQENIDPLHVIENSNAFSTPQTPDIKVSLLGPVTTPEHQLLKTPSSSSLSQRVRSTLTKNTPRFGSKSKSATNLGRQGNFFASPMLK
# [5] = fluconazole-exposed Candida albicans growth modulators – fluorescence, retest, confirmation (AID 2467); assay type: functional, cell-based
# [6] = NIH-3T3 fibroblast cytotoxicity, dose response, cytotoxicity control, cell-based, fluorescence, Alamar Blue, secondary assay (AID 2327); assay type: functional;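 further: NIH-3T3 mouse fibroblasts cultured with fluconazole at 8 µg/mL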
# [7] = target: T5, Heat shock factor protein 1 (Mus musculus, UniProt P38532); assay: decrease of HSF1-responsive luciferase luminescence – cell-based, NIH3T3, dose retest, confirmation (AID 2382); assay type: functional;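 further: NIH3T3 fibroblasts with HSF1-driven luciferase reporter stressed by proteasome inhibitor MG132; luminescence from HSF1-driven luciferase expression after 8 hours of MG132 stress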
# T5 sequence (P38532 whole entry): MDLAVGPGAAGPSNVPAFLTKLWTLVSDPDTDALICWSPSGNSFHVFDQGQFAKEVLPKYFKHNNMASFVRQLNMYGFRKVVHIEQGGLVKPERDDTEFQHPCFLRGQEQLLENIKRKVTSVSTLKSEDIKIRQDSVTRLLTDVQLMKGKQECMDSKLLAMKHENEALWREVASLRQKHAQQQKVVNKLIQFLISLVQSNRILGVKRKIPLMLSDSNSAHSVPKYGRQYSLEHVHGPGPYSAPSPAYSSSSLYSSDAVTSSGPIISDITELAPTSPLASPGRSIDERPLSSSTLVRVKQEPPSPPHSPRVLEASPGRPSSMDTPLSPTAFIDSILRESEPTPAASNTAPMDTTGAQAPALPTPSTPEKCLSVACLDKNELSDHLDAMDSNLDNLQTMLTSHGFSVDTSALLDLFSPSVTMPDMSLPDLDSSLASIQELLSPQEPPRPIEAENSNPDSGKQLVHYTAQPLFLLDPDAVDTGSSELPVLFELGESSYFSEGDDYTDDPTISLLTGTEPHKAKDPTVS
SMILES,IC50 (Protein skinhead-1),CC50 [1],AC50 [2],EC50 (Protein RecA),further results
CCCOC(=O)c1cc(O)nc2ccccc12,> 100 µM (inactive),,,,
CCOc1ccc2nc(SCC(=O)N3CCN(C(=O)c4ccco4)CC3)sc2c1,,22.8 µM (active),,,
CCOC(=O)CN1CC23C=CC(O2)C(C(=O)NCc2cccs2)C3C1=O (stereo not drawn),> 100 µM (inactive),,,,
O=C(Nc1ccc(-c2noc(CCc3ccccc3)n2)cc1)c1ccco1,> 100 µM (inactive),,,,
Fc1ccccc1/C=C/c1ccc2ccccc2n1,19.2 µM (active),,,,
Cc1ccc(/C=C/C(=O)c2c(C)cc(C)nc2O)cc1,,17.7 µM (active),,,
c1ccc(CSc2ncnc3ccccc23)cc1,36.1 µM (active),,,,
Cc1ccc(N(CCCCN2C(=O)c3ccccc3C2=O)C(=O)c2cccs2)cc1,,38.9 µM (active),,,
Cc1nc2ccccc2c2c1C(=O)N(c1cccc(C(=O)O)c1)C2=O,,,37 µM (active),17 µM (active),
COC(=O)c1c(NC(=O)c2ccco2)sc2c1CCC2,> 100 µM (inactive),,,,AC50 [3]: 68.2 µM (active); AC50 (Cytochrome P450 3A4): 39.8 µM (inconclusive)
Cc1cc(C)c2c(c1)-c1c(ssc1=S)C(C)(C)N2C(=O)CSc1nncn1C,,,5.32 µM (active),8.17 µM (active),
N#Cc1cc2c(nc1SCc1nc3ccccc3[nH]1)CCC2,,38 µM (active),,,
Cn1cc([C@@H]2C[C@H]3CN(Cc4cccc(Cl)c4)C(=O)[C@]34CCCN24)c2ccccc21,> 100 µM (inactive),,,,
Cc1ccc(C2CC(C(F)F)n3ncc(C(=O)Nc4cnn(Cc5ccccc5C)c4)c3N2)cc1 (stereo not drawn),,19.4 µM (active),,,
CCCCOC(=O)Nc1ccc(N2CCCCC2)cc1,10.6 µM (active),,,,
CC(C)CS(=O)(=O)C1=NSC2=NC(=O)/C(=C\c3ccc(OC(=O)c4ccco4)cc3)C(=N)N21,,,> 380 µM (inactive),13.8 µM (active),
COc1nc(-c2ccccc2)nnc1-c1ccccc1,23 µM (active),,,,
CC(C)c1n[nH]c2c1C1(CCN(Cc3ccccc3)CC1)C(C#N)=C(N)O2,,,53.5 µM (active),1.16 µM (active),
Cc1ccc(Cl)cc1N1CCN(C(=O)CCCn2c(=O)c3cccn3c3cccnc32)CC1,,12.1 µM (active),,,
CCCCNc1nnc(SCC(=O)N2CCN(S(=O)(=O)c3ccc4ccccc4c3)CC2)s1,,> 50 µM (active),,,
COc1ccc(CN2C(=O)/C(=C\NNC(=O)c3cccnc3)c3ccccc3C2=O)cc1,,,,,IC50 [4]: 137 µM (active); EC50 [5]: 1.32 µM (active); EC50 [6]: 27.4 µM (active)
Cc1cccc(N2CCN(C(=O)c3ccc4c(c3)CCN4S(C)(=O)=O)CC2)c1C,,38.3 µM (active),,,
CC(Oc1ccc(F)cc1)C(=O)Oc1ccc(N(C)S(=O)(=O)c2ccccc2)cc1 (stereo not drawn),,,0.725 µM (active),58.5 µM (active),
CCc1n[nH]c2c1C1(CCN(C(=O)c3ccccc3)CC1)C(C#N)=C(N)O2,,,24.6 µM (active),4.3 µM (active),
Cc1cccc(C(=O)c2cnc3ccccc3c2-c2ccccc2)c1,,,4.79 µM (active),22.8 µM (active),
CCOC(=O)c1ccc(-n2[nH]c(-c3ccccc3)cc2=O)cc1,,,3.43 µM (active),2.25 µM (active),EC50 [7]: > 195 µM (not active); AC50 [3]: 5.35 µM (active)
CCOC(=O)c1cnc(N)nc1C(F)(F)F,,,> 380 µM (inactive),> 380 µM (inactive),
COc1ccccc1N1CCN(/N=C/c2cc([N+](=O)[O-])ccc2Cl)CC1,,29 µM (active),,,
